{
  "source": "patent US20230047208A1",
  "about": "“RNA Splicing Modulation” (The General Hospital Corporation, priority 2020, published 2023)",
  "key": {"MLH1 c.1989 G>A, exon 17": {"test_system": "MLH1 c.1989 G>A, exon 17", "test": "MLH1 c.1989 G>A minigene exon 17 splicing in transfected cell lines", "assay_type": "cell-based", "conditions": "60 μM, 24 hours", "text": "FIGS. 4C-4F Upper row: The sequences at the 5′ splice site of Exon X in patient cells and minigene constructs are shown (FIGS. 4C-4F). The sequences around the 5′ splice site of Exon X are shown in LOGO plots, with the closely matched CNN motifs indicated beneath the plots. […] Middle row: RT-PCR experiments validated treatment responses in patient cell lines carrying specific splice site mutations. The upper bands indicate the isoform in which the middle Exon X is included while the lower bands indicate the isoform in which the middle Exon X is skipped. Each set of gels is one of the triplicates used to generate the bar plots beneath. […] The statistical significance, as shown in FIGS. 4C-4F, was determined via two-tailed, unpaired Student's test: *p<0.05; **p<0.01; ***p<0.001.\nIn another example from Table 18, a minigene encompassing MLH1 exons 16 to 18 and flanking exon 17 intronic sequences, with the c.1989 G>A mutation was prepared. This mutation was predicted by SpliceA1 to cause skipping of exon 17 in the MLH1 gene. […] The c.1989 G>A mutation in MLH1 is associated with hereditary nonpolyposis colorectal cancer (HNPCC) or Lynch syndrome (MIM #120435). Individuals with MLH1 mutations also have an increased risk of cancers of the endometrium, ovaries, stomach, small intestine, liver, gallbladder duct, upper urinary tract, and brain^14-16,65. […]"}, "ELP1 protein": {"test_system": "ELP1 protein", "test": "In vivo ELP1 protein quantification (ELP1-HTRF) in TgFD9 mouse tissues", "design": "species or system TgFD9 transgenic mice", "conditions": "brain, liver, kidney, heart and skin; TgFD9 mice, oral gavage once daily for 7 days, 10-100 mg/kg", "method": "FIGS. 7A-7G show the relative expression of full-length (FL) and Δ20 ELP1 mRNA (left panel), and ELP1 protein quantification (right panel) in brain (FIG. 7A) and liver (FIG. 7B) after oral doses of Compound (I) ranging from 10 to 100 mg/kg in adult transgenic TgFD9 mouse (n=4-6 mice in each treatment group). Comparisons were done within the same group, against the vehicle-treated mice. In the figure, *p<0.05; **p<0.01; ***p<0.001.\nFIGS. 7C-E show the relative expression of full-length (FL) and Δ20 ELP1 mRNA (left graphs), and ELP1 protein quantification (right graphs) in kidney (FIG. 7C), heart (FIG. 7D) and skin (FIG. 7E) after oral doses of Compound (I) ranging from 10 to 100 mg/kg in adult transgenic TgFD9 mouse (n=4-6 mice in each treatment group). […] The levels of compound were measured using mass spectrometry. […]\nCompound (I) was evaluated in vivo to determine whether splicing correction can lead to a concomitant increase in ELP1 protein. […]\nTissue samples were collected, snap frozen in liquid nitrogen, weighed, and homogenized on the TissueLyzer II (Qiagen) in RIPA buffer (Tris-HCl 50 mM, pH 7.4; NaCl 150 mM; NP-40 1%; sodium deoxycholate 0.5%; SDS 0.1%) containing a cocktail of protease inhibitors (Roche) at a tissue weight to RIPA buffer volume of 50 mg/mL. […] Fluorescence was measured at 665 nm and 620 nm on an EnVision multilabel plate reader (Perkin Elmer). […]"}, "[1]": {"test": "Tolerability and weight assessment of TgFD9 mice", "assay_type": "in vivo", "conditions": "oral gavage once daily for 7 days, 10, 30, 60 or 100 mg/kg", "method": "FIGS. 7C-E show the relative expression of full-length (FL) and Δ20 ELP1 mRNA (left graphs), and ELP1 protein quantification (right graphs) in kidney (FIG. 7C), heart (FIG. 7D) and skin (FIG. 7E) after oral doses of Compound (I) ranging from 10 to 100 mg/kg in adult transgenic TgFD9 mouse (n=4-6 mice in each treatment group). Comparisons were done within the same group, against the vehicle-treated mice. […] The levels of compound were measured using mass spectrometry. In the figure, *p<0.05; **p<0.01; ***p<0.001.\nCompound (I) was evaluated in vivo to determine whether splicing correction can lead to a concomitant increase in ELP1 protein. In brief, TgFD9 transgenic mice, which carry the human ELP1 gene with a Exon 20 splice mutation, were treated by oral gavage once daily for 7 days with Compound (I) as a suspension in 0.5% HPMC, 0.1% Tween 80 at a dose of 10, 30, 60 or 100 mg/kg. The mice used for this study were housed in an animal facility, provided with access to food and water ad libitum, and maintained on a 12-hour light/dark cycle. For routine genotyping, genomic DNA was prepared from tail biopsies and PCR was carried out to detect the TgFD9 transgene using the following primers—forward 5′-[…]-3′; reverse, 5′-[…]-3′. Mice were sacrificed 1 hour after the last dose.\nThe level of splicing correction correlated with Compound (I) tissue distribution (FIGS. 7F-7G)."}, "ELP1": {"test_system": "ELP1", "test": "In vivo ELP1 splicing correction in humanized transgenic mouse model"}},
  "data": [
    {"compound": "Clc1nc(NCc2ccncc2)c2cc[nH]c2n1", "note": "[Compound (I), 2-chloro-N-(pyridin-4-ylmethyl)-7H-pyrrolo[2,3-d]pyrimidin-4-amine]", "values": [
      {"measurement": "exon 17 splicing", "setting": "MLH1 c.1989 G>A, exon 17", "result": "significantly promoted exon 17 inclusion"},
      {"measurement": "increase in functional ELP1 protein", "setting": "ELP1 protein", "result": "at least a two-fold increase"},
      {"measurement": "tolerability, weight loss, adverse effects", "setting": "[1]", "result": "well tolerated with no weight loss or adverse effects observed"},
      {"measurement": "ELP1 protein in tissues", "setting": "ELP1", "result": "increase of ELP1 protein in all tissues, including the brain"}
    ]}
  ]
}
